Measured values as given in ChEMBL document CHEMBL1142695, “Discovery of functionally selective 7,8,9,10-tetrahydro-7,10-ethano-1,2,4-triazolo[3,4-a]phthalazines as GABA A receptor agonists at the alpha3 subunit” (J Med Chem, 2005).

What was measured:
Type in all cases: cell-based
[1] = molecular target: T1, GABA-A receptor; alpha-5/beta-3/gamma-2 (Homo sapiens, UniProt P18507+P28472+P31644); experiment: Inhibition of [3H]Ro-151788 binding to recombinant human gamma-aminobutyric-acid A receptor alpha-5-beta-3-gamma-2 subtype expressed in L (tk-) cells
T1 sequence (P18507 whole entry): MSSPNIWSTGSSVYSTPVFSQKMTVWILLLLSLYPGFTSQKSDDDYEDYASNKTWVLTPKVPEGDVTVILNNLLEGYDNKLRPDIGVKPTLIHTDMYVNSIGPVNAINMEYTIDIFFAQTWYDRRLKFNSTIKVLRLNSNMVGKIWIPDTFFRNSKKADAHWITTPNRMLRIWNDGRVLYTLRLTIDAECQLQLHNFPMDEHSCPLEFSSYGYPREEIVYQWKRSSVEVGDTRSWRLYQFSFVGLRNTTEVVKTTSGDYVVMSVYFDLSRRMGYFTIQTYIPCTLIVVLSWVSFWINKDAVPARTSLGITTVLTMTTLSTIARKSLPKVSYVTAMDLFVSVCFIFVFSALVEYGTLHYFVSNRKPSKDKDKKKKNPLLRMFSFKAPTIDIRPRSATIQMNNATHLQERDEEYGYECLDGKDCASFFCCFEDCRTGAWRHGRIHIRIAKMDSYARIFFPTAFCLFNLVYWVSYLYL
T1 sequence (P28472 whole entry): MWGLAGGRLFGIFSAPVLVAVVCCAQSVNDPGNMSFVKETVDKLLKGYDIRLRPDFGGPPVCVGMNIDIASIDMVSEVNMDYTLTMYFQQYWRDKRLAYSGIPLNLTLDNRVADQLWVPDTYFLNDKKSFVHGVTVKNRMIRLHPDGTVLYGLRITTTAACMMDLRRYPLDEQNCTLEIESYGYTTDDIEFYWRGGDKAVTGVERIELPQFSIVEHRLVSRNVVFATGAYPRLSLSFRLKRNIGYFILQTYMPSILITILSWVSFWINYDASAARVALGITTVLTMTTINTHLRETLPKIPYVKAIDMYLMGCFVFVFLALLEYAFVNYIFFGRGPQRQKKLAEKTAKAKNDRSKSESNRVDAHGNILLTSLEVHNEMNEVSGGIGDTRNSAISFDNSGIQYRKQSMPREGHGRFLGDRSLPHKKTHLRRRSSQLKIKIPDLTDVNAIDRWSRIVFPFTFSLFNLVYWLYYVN
T1 sequence (P31644 whole entry): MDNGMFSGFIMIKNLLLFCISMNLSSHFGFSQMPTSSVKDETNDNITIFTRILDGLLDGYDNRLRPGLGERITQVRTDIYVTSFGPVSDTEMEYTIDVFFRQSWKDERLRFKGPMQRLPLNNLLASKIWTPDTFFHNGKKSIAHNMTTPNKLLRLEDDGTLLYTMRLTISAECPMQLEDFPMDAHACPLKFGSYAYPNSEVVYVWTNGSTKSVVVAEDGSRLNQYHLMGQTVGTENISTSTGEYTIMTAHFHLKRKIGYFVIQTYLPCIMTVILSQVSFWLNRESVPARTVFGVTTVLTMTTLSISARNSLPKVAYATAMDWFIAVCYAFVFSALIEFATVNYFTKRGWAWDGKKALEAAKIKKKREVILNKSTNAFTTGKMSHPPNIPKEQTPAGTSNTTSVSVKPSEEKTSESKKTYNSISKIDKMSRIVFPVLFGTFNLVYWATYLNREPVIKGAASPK

[2] = molecular target: T2, GABA-A receptor; alpha-1/beta-3/gamma-2 (Homo sapiens, UniProt P14867+P18507+P28472); experiment: Inhibition of [3H]Ro-151788 binding to recombinant human gamma-aminobutyric-acid A receptor alpha-1-beta-3-gamma-2 subtype expressed in L (tk-) cells
T2 sequence (P14867 whole entry): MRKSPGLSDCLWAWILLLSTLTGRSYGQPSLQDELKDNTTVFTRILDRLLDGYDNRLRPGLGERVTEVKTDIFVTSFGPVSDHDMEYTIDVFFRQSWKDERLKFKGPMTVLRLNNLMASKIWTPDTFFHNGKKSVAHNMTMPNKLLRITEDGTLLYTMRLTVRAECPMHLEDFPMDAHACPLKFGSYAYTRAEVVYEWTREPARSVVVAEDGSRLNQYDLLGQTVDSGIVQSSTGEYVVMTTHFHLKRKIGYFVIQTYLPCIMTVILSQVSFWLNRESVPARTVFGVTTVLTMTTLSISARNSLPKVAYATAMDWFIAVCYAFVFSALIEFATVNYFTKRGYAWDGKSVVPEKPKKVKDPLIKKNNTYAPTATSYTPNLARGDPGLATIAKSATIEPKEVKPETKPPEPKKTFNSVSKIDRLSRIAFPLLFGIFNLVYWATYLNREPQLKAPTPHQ
T2 sequence (P18507 whole entry): T1 sequence (P18507 whole entry)
T2 sequence (P28472 whole entry): T1 sequence (P28472 whole entry)

[3] = molecular target: T3, GABA-A receptor; alpha-2/beta-3/gamma-2 (Homo sapiens, UniProt P18507+P28472+P47869); experiment: Inhibition of [3H]Ro-151788 binding to recombinant human gamma-aminobutyric acid A receptor alpha-2-beta-3-gamma-2 subtype expressed in L (tk-) cells
T3 sequence (P18507 whole entry): T1 sequence (P18507 whole entry)
T3 sequence (P28472 whole entry): T1 sequence (P28472 whole entry)
T3 sequence (P47869 whole entry): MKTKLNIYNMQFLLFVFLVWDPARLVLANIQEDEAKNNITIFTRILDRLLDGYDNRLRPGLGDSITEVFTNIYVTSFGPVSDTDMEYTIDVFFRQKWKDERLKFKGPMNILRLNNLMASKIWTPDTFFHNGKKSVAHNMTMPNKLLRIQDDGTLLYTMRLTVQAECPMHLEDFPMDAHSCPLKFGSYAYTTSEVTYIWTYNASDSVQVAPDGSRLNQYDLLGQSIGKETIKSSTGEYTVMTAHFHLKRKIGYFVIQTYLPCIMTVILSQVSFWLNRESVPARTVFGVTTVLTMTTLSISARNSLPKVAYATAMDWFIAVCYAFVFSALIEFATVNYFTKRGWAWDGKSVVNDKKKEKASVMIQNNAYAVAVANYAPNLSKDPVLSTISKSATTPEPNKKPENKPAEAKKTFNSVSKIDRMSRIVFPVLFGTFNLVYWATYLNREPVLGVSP

[4] = molecular target: T4, GABA-A receptor; alpha-3/beta-3/gamma-2 (Homo sapiens, UniProt P18507+P28472+P34903); experiment: Inhibition of [3H]Ro-151788 binding to recombinant human gamma-aminobutyric-acid A receptor alpha-3-beta-3-gamma-2 subtype expressed in L (tk-) cells
T4 sequence (P18507 whole entry): T1 sequence (P18507 whole entry)
T4 sequence (P28472 whole entry): T1 sequence (P28472 whole entry)
T4 sequence (P34903 whole entry): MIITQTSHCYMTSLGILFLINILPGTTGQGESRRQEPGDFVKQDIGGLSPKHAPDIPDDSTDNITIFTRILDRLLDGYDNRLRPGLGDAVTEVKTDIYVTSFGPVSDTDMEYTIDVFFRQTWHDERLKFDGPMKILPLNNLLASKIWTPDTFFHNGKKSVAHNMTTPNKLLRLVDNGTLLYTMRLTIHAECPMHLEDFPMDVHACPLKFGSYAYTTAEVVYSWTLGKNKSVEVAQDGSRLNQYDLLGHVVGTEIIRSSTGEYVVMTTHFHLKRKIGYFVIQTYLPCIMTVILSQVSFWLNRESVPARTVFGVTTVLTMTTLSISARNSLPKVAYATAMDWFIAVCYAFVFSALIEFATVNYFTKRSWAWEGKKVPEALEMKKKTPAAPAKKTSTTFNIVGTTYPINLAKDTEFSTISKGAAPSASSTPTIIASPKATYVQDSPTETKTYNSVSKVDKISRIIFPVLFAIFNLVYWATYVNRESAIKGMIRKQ

c1ccc(COc2nn3c(-c4ccccc4)nnc3c3c2C2CCC3CC2)cc1
Ki [1]: 110 nM | Ki [2]: > 1000 nM | Ki [3]: > 1000 nM | Ki [4]: > 1000 nM

c1ccc(COc2nn3c(C4CC4)nnc3c3c2C2CCC3CC2)nc1
Ki [1]: 1.8 nM | Ki [2]: 130 nM | Ki [3]: 24 nM | Ki [4]: 18 nM

c1ccc(-c2nnc3c4c(c(OCc5ccsc5)nn23)C2CCC4CC2)cc1
Ki [1]: > 500 nM | Ki [2]: > 500 nM | Ki [3]: > 500 nM | Ki [4]: > 500 nM

c1ccc(-c2nnc3c4c(c(OCc5cnc6ccccc6n5)nn23)C2CCC4CC2)cc1
Ki [1]: 3.9 nM | Ki [2]: 82 nM | Ki [3]: 34 nM | Ki [4]: 26 nM

Cc1scnc1COc1nn2c(-c3ccccc3)nnc2c2c1C1CCC2CC1
Ki [1]: 0.77 nM | Ki [2]: 35 nM | Ki [3]: 21 nM | Ki [4]: 12 nM

Clc1ccc(COc2nn3c(-c4ccccc4)nnc3c3c2C2CCC3CC2)nn1
Ki [1]: 1.3 nM | Ki [2]: 73 nM | Ki [3]: 42 nM | Ki [4]: 23 nM

Cc1nnc2ccc(-c3cccc(C(F)(F)F)c3)nn12 [CI-218872]
Ki [1]: 460 nM | Ki [2]: 66 nM | Ki [3]: 720 nM | Ki [4]: 850 nM

c1ccc(-c2nnc3c4c(c(OCc5ccc6c(c5)OCO6)nn23)C2CCC4CC2)cc1
Ki [1]: > 500 nM | Ki [2]: > 500 nM | Ki [3]: > 500 nM | Ki [4]: > 500 nM

OCC1CCC(COc2nn3c(-c4ccccc4)nnc3c3c2C2CCC3CC2)CC1 (stereo in doubt)
Ki [1]: 88 nM | Ki [2]: > 1000 nM | Ki [3]: > 1000 nM | Ki [4]: > 1000 nM

c1ccc(-c2nnc3c4c(c(OCCc5ccccn5)nn23)C2CCC4CC2)cc1
Ki [1]: 44 nM | Ki [2]: 480 nM | Ki [3]: 270 nM | Ki [4]: 200 nM

Cc1cccc(CCCOc2nn3c(-c4ccccc4)nnc3c3c2C2CCC3CC2)n1
Ki [1]: 30 nM | Ki [2]: 75 nM | Ki [3]: 190 nM | Ki [4]: 240 nM

OCc1ccc(COc2nn3c(-c4ccccc4)nnc3c3c2C2CCC3CC2)cc1
Ki [1]: 11 nM | Ki [2]: 520 nM | Ki [3]: 76 nM | Ki [4]: 44 nM

OCCCOc1nn2c(-c3ccccc3)nnc2c2c1C1CCC2CC1
Ki [1]: 42 nM | Ki [2]: 650 nM | Ki [3]: 310 nM | Ki [4]: 170 nM

c1ccc(-c2nnc3c4c(c(OCc5ncccc5OC5CCC5)nn23)C2CCC4CC2)cc1
Ki [1]: 4.2 nM | Ki [2]: 32 nM | Ki [3]: 43 nM | Ki [4]: 38 nM

c1ccc(COc2nn3c(-c4ccco4)nnc3c3c2C2CCC3CC2)nc1
Ki [1]: 5.3 nM | Ki [2]: 270 nM | Ki [3]: 110 nM | Ki [4]: 53 nM

FC(F)(F)Oc1ccc(COc2nn3c(-c4ccccc4)nnc3c3c2C2CCC3CC2)cc1
Ki [1]: > 500 nM | Ki [2]: > 500 nM | Ki [3]: > 500 nM | Ki [4]: > 500 nM

c1ccc(-c2nnc3c4c(c(OCc5ccc6ccccc6n5)nn23)C2CCC4CC2)cc1
Ki [1]: 9.5 nM | Ki [2]: 480 nM | Ki [3]: 200 nM | Ki [4]: 77 nM

c1ccc(COc2nn3c(N4CCOCC4)nnc3c3c2C2CCC3CC2)nc1
Ki [1]: > 1000 nM | Ki [2]: > 1000 nM | Ki [3]: > 1000 nM | Ki [4]: > 1000 nM

O=C1CCC(COc2nn3c(-c4ccccc4)nnc3c3c2C2CCC3CC2)N1 (stereo not drawn)
Ki [1]: 59 nM | Ki [2]: 730 nM | Ki [3]: 480 nM | Ki [4]: 260 nM

CN(C)C(=O)COc1nn2c(-c3ccccc3)nnc2c2c1C1CCC2CC1
Ki [1]: 10 nM | Ki [2]: 220 nM | Ki [3]: 160 nM | Ki [4]: 89 nM

Fc1ccccc1-c1nnc2c3c(c(OCc4ccccn4)nn12)C1CCC3CC1
Ki [1]: 0.54 nM | Ki [2]: 28 nM | Ki [3]: 16 nM | Ki [4]: 6.1 nM

c1ccc(COc2nn3c(-c4ccncc4)nnc3c3c2C2CCC3CC2)nc1
Ki [1]: 20 nM | Ki [2]: > 1000 nM | Ki [3]: 320 nM | Ki [4]: 150 nM

c1ccc(COc2nn3c(-c4ccsc4)nnc3c3c2C2CCC3CC2)nc1
Ki [1]: 4.4 nM | Ki [2]: 130 nM | Ki [3]: 52 nM | Ki [4]: 38 nM

Cn1nnnc1COc1nn2c(-c3ccccc3)nnc2c2c1C1CCC2CC1
Ki [1]: 4.4 nM | Ki [2]: 78 nM | Ki [3]: 59 nM | Ki [4]: 21 nM

Cc1nc(COc2nn3c(-c4ccccc4)nnc3c3c2C2CCC3CC2)no1
Ki [1]: 16 nM | Ki [2]: 140 nM | Ki [3]: 110 nM | Ki [4]: 66 nM

Oc1cccnc1COc1nn2c(-c3ccccc3)nnc2c2c1C1CCC2CC1
Ki [1]: 34 nM | Ki [2]: 270 nM | Ki [3]: 470 nM | Ki [4]: 180 nM

Cc1cnc(COc2nn3c(-c4ccccc4)nnc3c3c2C2CCC3CC2)s1
Ki [1]: 2 nM | Ki [2]: 100 nM | Ki [3]: 28 nM | Ki [4]: 24 nM

O=C(COc1nn2c(-c3ccccc3)nnc2c2c1C1CCC2CC1)N1CCCC1
Ki [1]: 9 nM | Ki [2]: 230 nM | Ki [3]: 160 nM | Ki [4]: 50 nM

Cc1cccc(COc2nn3c(-c4ccccc4)nnc3c3c2C2CCC3CC2)n1
Ki [1]: 2.6 nM | Ki [2]: 160 nM | Ki [3]: 36 nM | Ki [4]: 20 nM

N#Cc1ccc(COc2nn3c(-c4ccccc4)nnc3c3c2C2CCC3CC2)cc1
Ki [1]: 9.4 nM | Ki [2]: 310 nM | Ki [3]: 110 nM | Ki [4]: 70 nM

CN(C(=O)COc1nn2c(-c3ccccc3)nnc2c2c1C1CCC2CC1)c1ccccc1
Ki [1]: 7.4 nM | Ki [2]: 21 nM | Ki [3]: 72 nM | Ki [4]: 41 nM

Cc1csc(-c2nnc3c4c(c(OCc5ccccn5)nn23)C2CCC4CC2)n1
Ki [1]: 26 nM | Ki [2]: > 1000 nM | Ki [3]: 140 nM | Ki [4]: 100 nM
